Source: patent US5807985A, “Oligopeptide compounds containing D-2-alkyltryptophan capable of promoting the release of growth hormone” (priority 1997, dated 1998)
pIC50: −log10 of the molar value. Read-outs that look alike come from different tables or passages of the source. Peptide text beside a SMILES is read from it.

What was measured:
[1] = system: Human heart tissue; assay: Inhibition of 125I-Tyr-Ala-HEXARELIN binding to human heart tissue membranes; settings: for percent of inhibition of 125I-Tyr-Ala-HEXARELIN specifically bound / specific binding of 125I-Tyr-Ala-HEXARELIN/0.1 mg membrane protein: heart; for pIC50: human heart tissue
Description: (§1) The peptides of Examples 3 and 6 were further studied for inhibition of ^125 I--Tyr--Ala--HEXARELIN binding to human tissue. HEXARELIN is His--D--Mrp--Ala--Trp--D--Phe--Lys--NH2 where Mrp is 2-methyltryptophan.
(§2) Tissue membranes (0.1 mg protein) obtained from the heart and hypothalamus of two different adult subjects were incubated in triplicate with a subsaturating concentration (34 pM, about 48,000 cpm, for heart tissue and 42 pM, about 60,000 cpm, for hypothalamus tissue) of ^125 I--Tyr--Ala--HEXARELIN for 40 min at 0° C. in the absence and in the presence of increasing concentrations of the indicated unlabelled peptides. The value in parentheses represents the percent of inhibition of ^125 1I--Tyr--Ala--HEXARELIN specifically bound.
(§3) The specific binding of ^125 I--Tyr--Ala--HEXARELIN/0.1 mg membrane protein is expressed as a percent of total radioactivity added.

[2] = target: Human hypothalamus tissue; assay: Inhibition of 125I-Tyr-Ala-HEXARELIN binding to human hypothalamus tissue membranes; settings: for pIC50: human hypothalamus tissue; for percent of inhibition of 125I-Tyr-Ala-HEXARELIN specifically bound / specific binding of 125I-Tyr-Ala-HEXARELIN/0.1 mg membrane protein: hypothalamus
Description: as §1, §2, §3

[3] = mean of subjects 1 and 2, read-out: mean IC50 value
[4] = subject 1, read-out: IC50 value
[5] = subject 2, read-out: IC50 value

Cc1[nH]c2ccccc2c1C[C@@H](NC(=O)[C@@H](N)Cc1cnc[nH]1)C(=O)N[C@@H](C)C(=O)N[C@@H](Cc1c[nH]c2ccccc12)C(=O)N[C@H](Cc1ccccc1)C(=O)N[C@@H](CCCCN)C(N)=O [HEXARELIN, His--D--Mrp--Ala--Trp--D--Phe--Lys--NH2] (HELM PEPTIDE1{H.[Cc1[nH]c2ccccc2c1C[C@@H](N[*:1])C(=O)[*:2]].A.W.[dF].K.[am]}$$$$V2.0)
percent of inhibition of 125I-Tyr-Ala-HEXARELIN specifically bound ([1]; 0.1 nM peptide, subject 1): 4% | specific binding of 125I-Tyr-Ala-HEXARELIN/0.1 mg membrane protein ([1]; 0.1 nM peptide, subject 1): 20.1% of total radioactivity | percent of inhibition of 125I-Tyr-Ala-HEXARELIN specifically bound ([1]; 0.1 nM peptide, subject 2): 5% | specific binding of 125I-Tyr-Ala-HEXARELIN/0.1 mg membrane protein ([1]; 0.1 nM peptide, subject 2): 22.8% of total radioactivity | percent of inhibition of 125I-Tyr-Ala-HEXARELIN specifically bound ([1]; 1 nM peptide, subject 1): 20% | specific binding of 125I-Tyr-Ala-HEXARELIN/0.1 mg membrane protein ([1]; 1 nM peptide, subject 1): 16.9% of total radioactivity | percent of inhibition of 125I-Tyr-Ala-HEXARELIN specifically bound ([1]; 1 nM peptide, subject 2): 28% | specific binding of 125I-Tyr-Ala-HEXARELIN/0.1 mg membrane protein ([1]; 1 nM peptide, subject 2): 17.3% of total radioactivity | percent of inhibition of 125I-Tyr-Ala-HEXARELIN specifically bound ([1]; 10 nM peptide, subject 1): 51% | specific binding of 125I-Tyr-Ala-HEXARELIN/0.1 mg membrane protein ([1]; 10 nM peptide, subject 1): 10.4% of total radioactivity | percent of inhibition of 125I-Tyr-Ala-HEXARELIN specifically bound ([1]; 10 nM peptide, subject 2): 56% | specific binding of 125I-Tyr-Ala-HEXARELIN/0.1 mg membrane protein ([1]; 10 nM peptide, subject 2): 10.5% of total radioactivity | percent of inhibition of 125I-Tyr-Ala-HEXARELIN specifically bound ([1]; 100 nM peptide, subject 1): 92% | specific binding of 125I-Tyr-Ala-HEXARELIN/0.1 mg membrane protein ([1]; 100 nM peptide, subject 1): 1.7% of total radioactivity | percent of inhibition of 125I-Tyr-Ala-HEXARELIN specifically bound ([1]; 100 nM peptide, subject 2): 90% | specific binding of 125I-Tyr-Ala-HEXARELIN/0.1 mg membrane protein ([1]; 100 nM peptide, subject 2): 2.4% of total radioactivity | percent of inhibition of 125I-Tyr-Ala-HEXARELIN specifically bound ([1]; 1000 nM peptide, subject 1): 100% | specific binding of 125I-Tyr-Ala-HEXARELIN/0.1 mg membrane protein ([1]; 1000 nM peptide, subject 1): 0% of total radioactivity | percent of inhibition of 125I-Tyr-Ala-HEXARELIN specifically bound ([1]; 1000 nM peptide, subject 2): 100% | specific binding of 125I-Tyr-Ala-HEXARELIN/0.1 mg membrane protein ([1]; 1000 nM peptide, subject 2): 0% of total radioactivity | pIC50 [1, 3]: 8.02 | pIC50 [1, 4]: 7.97 | pIC50 [1, 5]: 8.08 | pIC50 [2, 3]: 8.15 | pIC50 [2, 4]: 8.05 | pIC50 [2, 5]: 8.30 | percent of inhibition of 125I-Tyr-Ala-HEXARELIN specifically bound ([2]; 0.1 nM peptide, subject 1): 3% | specific binding of 125I-Tyr-Ala-HEXARELIN/0.1 mg membrane protein ([2]; 0.1 nM peptide, subject 1): 10.7% of total radioactivity | percent of inhibition of 125I-Tyr-Ala-HEXARELIN specifically bound ([2]; 0.1 nM peptide, subject 2): 4% | specific binding of 125I-Tyr-Ala-HEXARELIN/0.1 mg membrane protein ([2]; 0.1 nM peptide, subject 2): 9.1% of total radioactivity | percent of inhibition of 125I-Tyr-Ala-HEXARELIN specifically bound ([2]; 1 nM peptide, subject 1): 16% | specific binding of 125I-Tyr-Ala-HEXARELIN/0.1 mg membrane protein ([2]; 1 nM peptide, subject 1): 9.6% of total radioactivity | percent of inhibition of 125I-Tyr-Ala-HEXARELIN specifically bound ([2]; 1 nM peptide, subject 2): 19% | specific binding of 125I-Tyr-Ala-HEXARELIN/0.1 mg membrane protein ([2]; 1 nM peptide, subject 2): 7.7% of total radioactivity | percent of inhibition of 125I-Tyr-Ala-HEXARELIN specifically bound ([2]; 10 nM peptide, subject 1): 51% | specific binding of 125I-Tyr-Ala-HEXARELIN/0.1 mg membrane protein ([2]; 10 nM peptide, subject 1): 5.2% of total radioactivity | percent of inhibition of 125I-Tyr-Ala-HEXARELIN specifically bound ([2]; 10 nM peptide, subject 2): 67% | specific binding of 125I-Tyr-Ala-HEXARELIN/0.1 mg membrane protein ([2]; 10 nM peptide, subject 2): 3.1% of total radioactivity | percent of inhibition of 125I-Tyr-Ala-HEXARELIN specifically bound ([2]; 100 nM peptide, subject 1): 89% | specific binding of 125I-Tyr-Ala-HEXARELIN/0.1 mg membrane protein ([2]; 100 nM peptide, subject 1): 1.2% of total radioactivity | percent of inhibition of 125I-Tyr-Ala-HEXARELIN specifically bound ([2]; 100 nM peptide, subject 2): 93% | specific binding of 125I-Tyr-Ala-HEXARELIN/0.1 mg membrane protein ([2]; 100 nM peptide, subject 2): 0.7% of total radioactivity | percent of inhibition of 125I-Tyr-Ala-HEXARELIN specifically bound ([2]; 1000 nM peptide, subject 1): 100% | specific binding of 125I-Tyr-Ala-HEXARELIN/0.1 mg membrane protein ([2]; 1000 nM peptide, subject 1): 0% of total radioactivity | percent of inhibition of 125I-Tyr-Ala-HEXARELIN specifically bound ([2]; 1000 nM peptide, subject 2): 100% | specific binding of 125I-Tyr-Ala-HEXARELIN/0.1 mg membrane protein ([2]; 1000 nM peptide, subject 2): 0% of total radioactivity
